# According to patent US4340609A, “Amidinourea derivative veterinary compositions for suppression of parasitemia” (William H. Rorer, Inc., priority 1980, dated 1982):
# Where two headings read alike, the source gives them in different places.
# Legend:
# plasmodium berghei = assay: suppression of parasitemia in mice infected with plasmodium berghei; type: in vivo; details: for ED50: Plasmodium berghei, sc; for ED50 / Mean % Parasitemia / Mean % Suppression / % died: mice
# Experimental: Five representative amidinoureas were tested in mice infected with plasmodium berghei. The five compounds tested are the following:
# Groups of 10 mice each were used in seven doses totaling 70 mice per compound. The protozoal infection was induced by intraperitoneal injection of 5,000,000 parasitized blood cells from a donor. The compound was administered subcutaneously in doses ranging from 0.15 to 10 mg. per kg., suspended on 0.5% methacel solution (doses expressed as base). The compound was repeatedly injected on the day of inoculation (day 1), day 2 and day 3. Blood smears were performed on days 4, 5, 6 and 10.
# Untreated control but infected mice developed fulminating parasitemia of as high as 35% on day 10 and deaths occurred from day 12 to 14.
# [1] = triazine form/metabolite, cited from earlier work; for usefulness in therapy: malaria
# [2] = s.c., 1.0 mg/kg on days 1-3, 4th day
# [3] = s.c., 1.0 mg/kg on days 1-3, 5th day
# [4] = s.c., 1.0 mg/kg on days 1-3, 6th day
# [5] = s.c., 1.0 mg/kg on days 1-3, 10th day
# [6] = s.c., 2.0 mg/kg on days 1-3, 4th day
# [7] = s.c., 2.0 mg/kg on days 1-3, 5th day
# [8] = s.c., 2.0 mg/kg on days 1-3, 6th day
# [9] = s.c., 2.0 mg/kg on days 1-3, 10th day
# [10] = s.c., 10.0 mg/kg on days 1-3, 4th day
# [11] = s.c., 10.0 mg/kg on days 1-3, 5th day
# [12] = s.c., 10.0 mg/kg on days 1-3, 6th day
# [13] = s.c., 10.0 mg/kg on days 1-3, 10th day
# [14] = s.c., .15 mg/kg on days 1-3, 4th day
# [15] = s.c., .15 mg/kg on days 1-3, 5th day
# [16] = s.c., .15 mg/kg on days 1-3, 6th day
# [17] = s.c., .15 mg/kg on days 1-3, 10th day
# [18] = s.c., .20 mg/kg on days 1-3, 4th day
# [19] = s.c., .20 mg/kg on days 1-3, 5th day
# [20] = s.c., .20 mg/kg on days 1-3, 6th day
# [21] = s.c., .20 mg/kg on days 1-3, 10th day
# [22] = s.c., .30 mg/kg on days 1-3, 4th day
# [23] = s.c., .30 mg/kg on days 1-3, 5th day
# [24] = s.c., .30 mg/kg on days 1-3, 6th day
# [25] = s.c., .30 mg/kg on days 1-3, 10th day
# [26] = s.c., .50 mg/kg on days 1-3, 4th day
# [27] = s.c., .50 mg/kg on days 1-3, 5th day
# [28] = s.c., .50 mg/kg on days 1-3, 6th day
# [29] = s.c., .50 mg/kg on days 1-3, 10th day
smiles,measurement,setting,value
"CNC(=N)NC(=O)Nc1c(C)cc(Br)cc1Cl.Cl [Compound C, 1-(4-bromo-2-chloro-6-methylphenyl)-3-methylamidinourea hydrochloride]",ED50,"plasmodium berghei; 96 h, s.c., levels of parasitemia, 4th day, read-out: SED50 (Suppressant Effective Dose50)",1.12 mg/kg
same,ED50,"plasmodium berghei; 120 h, s.c., levels of parasitemia, 5th day, read-out: SED50 (Suppressant Effective Dose50)",1.12 mg/kg
same,ED50,"plasmodium berghei; 144 h, s.c., levels of parasitemia, 6th day, read-out: SED50 (Suppressant Effective Dose50)",1.39 mg/kg
same,ED50,"plasmodium berghei; 240 h, s.c., levels of parasitemia, 10th day, read-out: SED50 (Suppressant Effective Dose50)",3.99 mg/kg
same,ED50,"plasmodium berghei; day 4 to day 10, read-out: HIGHEST SED50",3.99 mg/kg
same,ED50,"plasmodium berghei; day 4 to day 10, read-out: LOWEST SED50",1.12 mg/kg
same,FACTOR (HIGHEST SED50 ÷ LOWEST SED50),"plasmodium berghei; factor of change, day 4 to day 10, duration of action",3.56
same,Mean % Parasitemia,plasmodium berghei; [2],2.75%
same,Mean % Suppression,plasmodium berghei; [2],47.6%
same,Mean % Parasitemia,plasmodium berghei; [3],3.60%
same,Mean % Suppression,plasmodium berghei; [3],50.7%
same,Mean % Parasitemia,plasmodium berghei; [4],5.20%
same,Mean % Suppression,plasmodium berghei; [4],44.1%
same,Mean % Parasitemia,plasmodium berghei; [5],28.30%
same,Mean % Suppression,plasmodium berghei; [5],20.3%
same,% died,"plasmodium berghei; s.c., 1.0 mg/kg on days 1-3, 12th day",20%
same,% died,"plasmodium berghei; s.c., 1.0 mg/kg on days 1-3, 13th day",60%
same,% died,"plasmodium berghei; s.c., 1.0 mg/kg on days 1-3, 14th day",60%
same,Mean % Parasitemia,plasmodium berghei; [6],1.50%
same,Mean % Suppression,plasmodium berghei; [6],71.4%
same,Mean % Parasitemia,plasmodium berghei; [7],1.90%
same,Mean % Suppression,plasmodium berghei; [7],74.0%
same,Mean % Parasitemia,plasmodium berghei; [8],4.10%
same,Mean % Suppression,plasmodium berghei; [8],56.0%
same,Mean % Parasitemia,plasmodium berghei; [9],24.28%
same,Mean % Suppression,plasmodium berghei; [9],31.6%
same,% died,"plasmodium berghei; s.c., 2.0 mg/kg on days 1-3, 12th day",20%
same,% died,"plasmodium berghei; s.c., 2.0 mg/kg on days 1-3, 13th day",20%
same,% died,"plasmodium berghei; s.c., 2.0 mg/kg on days 1-3, 14th day",40%
same,Mean % Parasitemia,plasmodium berghei; [10],0%
same,Mean % Suppression,plasmodium berghei; [10],100.0%
same,Mean % Parasitemia,plasmodium berghei; [11],0%
same,Mean % Suppression,plasmodium berghei; [11],100.0%
same,Mean % Parasitemia,plasmodium berghei; [12],0%
same,Mean % Suppression,plasmodium berghei; [12],100.0%
same,Mean % Parasitemia,plasmodium berghei; [13],0%
same,Mean % Suppression,plasmodium berghei; [13],100.0%
same,% died,"plasmodium berghei; s.c., 10.0 mg/kg on days 1-3, 12th day",0%
same,% died,"plasmodium berghei; s.c., 10.0 mg/kg on days 1-3, 13th day",0%
same,% died,"plasmodium berghei; s.c., 10.0 mg/kg on days 1-3, 14th day",0%
same,Mean % Parasitemia,plasmodium berghei; [14],5.00%
same,Mean % Suppression,plasmodium berghei; [14],4.8%
same,Mean % Parasitemia,plasmodium berghei; [15],7.20%
same,Mean % Suppression,plasmodium berghei; [15],1.4%
same,Mean % Parasitemia,plasmodium berghei; [16],9.20%
same,Mean % Suppression,plasmodium berghei; [16],1.1%
same,Mean % Parasitemia,plasmodium berghei; [17],35.40%
same,Mean % Suppression,plasmodium berghei; [17],0.3%
same,% died,"plasmodium berghei; s.c., .15 mg/kg on days 1-3, 12th day",20%
same,% died,"plasmodium berghei; s.c., .15 mg/kg on days 1-3, 13th day",40%
same,% died,"plasmodium berghei; s.c., .15 mg/kg on days 1-3, 14th day",80%
same,Mean % Parasitemia,plasmodium berghei; [18],5.00%
same,Mean % Suppression,plasmodium berghei; [18],4.8%
same,Mean % Parasitemia,plasmodium berghei; [19],6.25%
same,Mean % Suppression,plasmodium berghei; [19],14.4%
same,Mean % Parasitemia,plasmodium berghei; [20],9.10%
same,Mean % Suppression,plasmodium berghei; [20],2.2%
same,Mean % Parasitemia,plasmodium berghei; [21],35.10%
same,Mean % Suppression,plasmodium berghei; [21],1.1%
same,% died,"plasmodium berghei; s.c., .20 mg/kg on days 1-3, 12th day",40%
same,% died,"plasmodium berghei; s.c., .20 mg/kg on days 1-3, 13th day",60%
same,% died,"plasmodium berghei; s.c., .20 mg/kg on days 1-3, 14th day",60%
same,Mean % Parasitemia,plasmodium berghei; [22],4.75%
same,Mean % Suppression,plasmodium berghei; [22],9.5%
same,Mean % Parasitemia,plasmodium berghei; [23],6.00%
same,Mean % Suppression,plasmodium berghei; [23],17.8%
same,Mean % Parasitemia,plasmodium berghei; [24],8.30%
same,Mean % Suppression,plasmodium berghei; [24],10.8%
same,Mean % Parasitemia,plasmodium berghei; [25],33.40%
same,Mean % Suppression,plasmodium berghei; [25],5.9%
same,% died,"plasmodium berghei; s.c., .30 mg/kg on days 1-3, 12th day",20%
same,% died,"plasmodium berghei; s.c., .30 mg/kg on days 1-3, 13th day",40%
same,% died,"plasmodium berghei; s.c., .30 mg/kg on days 1-3, 14th day",80%
same,Mean % Parasitemia,plasmodium berghei; [26],4.75%
same,Mean % Suppression,plasmodium berghei; [26],9.5%
same,Mean % Parasitemia,plasmodium berghei; [27],5.20%
same,Mean % Suppression,plasmodium berghei; [27],28.8%
same,Mean % Parasitemia,plasmodium berghei; [28],7.00%
same,Mean % Suppression,plasmodium berghei; [28],24.7%
same,Mean % Parasitemia,plasmodium berghei; [29],31.40%
same,Mean % Suppression,plasmodium berghei; [29],11.5%
same,% died,"plasmodium berghei; s.c., .50 mg/kg on days 1-3, 12th day",0%
same,% died,"plasmodium berghei; s.c., .50 mg/kg on days 1-3, 13th day",20%
same,% died,"plasmodium berghei; s.c., .50 mg/kg on days 1-3, 14th day",80%
[H]/N=C(\N/C(=N/[H])Nc1ccc(Cl)cc1)NC(C)C [chloroguanide],excretion from the body,[1],rapidly excreted from the body when in its triazine form
same,usefulness in therapy,[1],little or no usefulness
CC1(C)N=C(N)N=C(N)N1c1ccc(Cl)cc1 [triazine metabolite of chloroquanide],excretion from the body,[1],rapid excretion from the body
same,usefulness in therapy,[1],little or no usefulness in the therapy of humans and monkeys
